Measurements from patent publication US20260207560A1, “PLURALITY OF GRANULES” (priority 2022, published 2026).
Several values for one entry are separate records, joined by “and”; a condition that tells them apart may be missing. Equal values may be shown once. Marks after values point to notes of the source that are not given here.

Experiment: Compatibility of active ingredient with HPMC and gelatin capsule shells (assay, related substances)
Format: physicochemical
Settings: for Assay (%): single vials
Description: Binary mixtures of the active ingredient with the capsules shells were made as follows: • An active ingredient doping solution (active ingredient dissolved in ethanol) was made ([…]). A 100 μL aliquot of this doping was used to ‘spike’ the 10 vials of each capsule shell type as described in Table 5. The nominal quantity of active ingredient per vial was therefore 50 μg. • No doping solution was added to the three control vials of the excipient. • The active vials were left open overnight to evaporate all the ethanol, before closing the vials. • Both the active and placebo control vials were placed on stability for up to 28 days at 25° C. and 50° C.

[1] = HPMC capsule shell, 25° C., 14 days, listed as active ingredient
[2] = HPMC capsule shell, 25° C., 28 days
[3] = HPMC capsule shell, 25° C., 28 days, listed as active ingredient
[4] = HPMC capsule shell, 50° C., 14 days
[5] = HPMC capsule shell, 50° C., 14 days, listed as active ingredient
[6] = HPMC capsule shell, 50° C., 28 days
[7] = HPMC capsule shell, 50° C., 28 days, listed as active ingredient
[8] = HPMC capsule shell, initial, listed as active ingredient
[9] = Hard Gelatin capsule shell, 25° C., 14 days, listed as active ingredient
[10] = Hard Gelatin capsule shell, 25° C., 28 days, listed as active ingredient
[11] = Hard Gelatin capsule shell, 50° C., 14 days
[12] = Hard Gelatin capsule shell, 50° C., 14 days, listed as active ingredient
[13] = Hard Gelatin capsule shell, 50° C., 28 days
[14] = Hard Gelatin capsule shell, 50° C., 28 days, listed as active ingredient
[15] = Hard Gelatin capsule shell, initial
[16] = Hard Gelatin capsule shell, initial, listed as active ingredient

## CCS(=O)(=O)Nc1ccc2c(c1)nc(C(C)(C)C)n2CC1CCC(F)(F)CC1 [Compound I, N-(2-(tert-butyl)-1-((4,4-difluorocyclohexyl)methyl)-1H-benzimidazol-5-yl)ethanesulfonamide]
[1]
  Related substance RRT 1.36: 0.13% and 0.12%
  Related substances total: 0.82% and 0.80%
HPMC capsule shell, 25° C., 14 days
  Assay (%): 98.9%
[2]
  Assay (%), mean: 99.1%
  Related substance RRT 0.92: 0.08%
  Related substance RRT 1.04: 0.07%
  Related substances total: 0.79%
[3]
  Related substance RRT 0.98: 0.3% and 0.31%
  Related substance RRT 1.10: 0.09% and 0.08%
  Related substance RRT 1.35: 0.12% and 0.13%
  Related substance RRT 1.36: 0.12% and 0.13%
  Assay (%): 99.3% and 99.0%
[4]
  Assay (%), mean: 98.8%
  Related substance RRT 0.97: 0.67* %
  Related substance RRT 1.04: 0.07%
  Related substance RRT 1.10: 0.09%
  Related substance RRT 1.36: 0.12%
[5]
  Related substance RRT 0.92: 0.07% and <0.05%
  Related substance RRT 0.98: 0.30% and 0.29%
  Related substance RRT 1.35: 0.13% and 0.12%
  Related substances total: 0.79% and 1.37%
  Assay (%): 98.9% and 98.7%
[6]
  Assay (%), mean: 98.9%
  Related substance RRT 0.92: 0.07%
  Related substance RRT 1.35: 0.12%
[7]
  Related substance RRT 0.98: 0.31% and 0.32%
  Related substance RRT 1.04: 0.07% and 0.09%
  Related substance RRT 1.10: 0.09% and 0.10%
  Related substance RRT 1.36: 0.12% and 0.13%
  Related substances total: 0.79% and 0.83%
  Assay (%): 98.8% and 98.9%
HPMC capsule shell, initial
  Assay (%), mean: 97.8%
  Related substance RRT 1.04: 0.07%
  Related substance RRT 1.35: 0.13%
  Related substance RRT 1.36: 0.13%
[8]
  Related substance RRT 0.92: 0.08% and 0.07%
  Related substance RRT 0.98: 0.3% and 0.31%
  Related substance RRT 1.10: 0.09% and 0.10%
  Related substances total: 0.81% and 0.82%
  Assay (%): 96.5% and 99.0%
HPMC or gelatin capsules, all conditions and timepoints
  Degradation of the active ingredient (from % assay): no degradation
Hard Gelatin capsule shell, 25° C., 14 days
  Related substance RRT 1.35: 0.07%
[9]
  Related substance RRT 0.92: 0.05% and <0.05%
  Related substance RRT 0.98: 0.22% and 0.18%
  Related substance RRT 1.04: 0.05% and <0.05%
  Related substance RRT 1.10: 0.10% and 0.09%
  Related substance RRT 1.36: 0.07% and 0.08%
  Related substances total: 0.56% and 0.42%
Hard Gelatin capsule shell, 25° C., 28 days
  Related substance RRT 1.04: <0.05%
[10]
  Related substance RRT 0.92: 0.05% and <0.05%
  Related substance RRT 0.98: 0.18% and 0.14%
  Related substance RRT 1.10: 0.08% and 0.09%
  Related substance RRT 1.35: 0.07% and 0.06%
  Related substance RRT 1.36: 0.08% and 0.07%
  Related substances total: 0.47% and 0.36%
[11]
  Related substance RRT 0.92: <0.05%
  Related substance RRT 1.04: <0.05%
  Related substance RRT 1.10: 0.09%
  Related substance RRT 1.35: 0.06%
  Related substance RRT 1.36: 0.07%
[12]
  Related substance RRT 0.98: 0.14% and 0.12%
  Related substances total: 0.37% and 0.34%
[13]
  Related substance RRT 0.92: <0.05%
  Related substance RRT 1.04: <0.05%
  Related substance RRT 1.35: 0.06%
  Related substance RRT 1.36: 0.07%
  Related substances total: 0.33%
[14]
  Related substance RRT 0.98: 0.11% and 0.09%
  Related substance RRT 1.10: 0.09% and 0.11%
[15]
  Related substance RRT 1.04: 0.05%
  Related substance RRT 1.10: 0.10%
  Related substance RRT 1.36: 0.08%
[16]
  Related substance RRT 0.92: 0.06% and 0.05%
  Related substance RRT 0.98: 0.26% and 0.24%
  Related substance RRT 1.35: 0.08% and 0.07%
  Related substances total: 0.62% and 0.58%
Both capsule types, all incubation times and temperatures
  Total impurities: below 1%
